The source of these data is patent US20220046923A1, “HERBICIDAL CINNOLINIUM COMPOUNDS” (SYNGENTA CROP PROTECTION AG, priority 2018, published 2022).

Assay in all cases: Post-emergence efficacy, glasshouse spray test
Holding throughout (type): in vivo

The test system of assay [1] is Chenopodium album (CHEAL). The following applies: Chenopodium album, post-emergence, 312 h, evaluated after 13 days, read-out: Control of weed species CHEAL after post-emergence application (100=total damage to plant; 0=no damage to plant). Put shortly: (§1)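 Compound formulated in acetone/IF50 and diluted into 0.25% or 1% Empicol ESC70 with 1% ammonium sulphate was sprayed on glasshouse seedlings 14 days after sowing. Growth continued at 24/16 °C, 14 h light, 65% humidity with twice-daily watering; damage (0–100) scored on day 13.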

Assay [2] has as its system Echinochloa crus-galli (ECHCG). To be noted: Echinochloa crus-galli, post-emergence, 312 h, evaluated after 13 days, read-out: Control of weed species ECHCG after post-emergence application (100=total damage to plant; 0=no damage to plant). Put shortly:
as §1

Another assay relates to Eleusine indica (ELEIN). The following applies: Eleusine indica, post-emergence, 312 h, evaluated after 13 days, read-out: Control of weed species ELEIN after post-emergence application (100=total damage to plant; 0=no damage to plant). An outline of the steps: as §1
Assay [3] concerns Euphorbia heterophylla (EPHHL). To be noted: Euphorbia heterophylla, post-emergence, 312 h, evaluated after 13 days, read-out: Control of weed species EPHHL after post-emergence application (100=total damage to plant; 0=no damage to plant). Put shortly:
as §1

For another assay, the system named is Lolium perenne (LOLPE). To be noted: Lolium perenne, post-emergence, 312 h, evaluated after 13 days, read-out: Control of weed species LOLPE after post-emergence application (100=total damage to plant; 0=no damage to plant). Put shortly:
as §1

Assay [4] deals with Amaranthus palmeri (AMAPA). The following applies: Amaranthus palmeri, post-emergence, 312 h, evaluated after 13 days, read-out: Control of weed species AMAPA after post-emergence application (100=total damage to plant; 0=no damage to plant). An outline of the steps: as §1
In the next assay the test system is Setaria faberi (SETFA). To be noted: Setaria faberi, post-emergence, 312 h, evaluated after 13 days, read-out: Control of weed species SETFA after post-emergence application (100=total damage to plant; 0=no damage to plant). An outline of the steps:
as §1

For assay [5], the system named is Digitaria sanguinalis (DIGSA). To be noted: Digitaria sanguinalis, post-emergence, 312 h, evaluated after 13 days, read-out: Control of weed species DIGSA after post-emergence application (100=total damage to plant; 0=no damage to plant). An outline of the steps:
as §1

The test system of assay [6] is Ipomoea hederacea (IPOHE). The following applies: Ipomoea hederacea, post-emergence, 312 h, evaluated after 13 days, read-out: Control of weed species IPOHE after post-emergence application (100=total damage to plant; 0=no damage to plant). An outline of the steps: as §1

SMILES strings stand for the structures.

With `COC(=O)C(C)[n+]1ccc2ccccc2n1` (stereo not drawn) [Compound A120], the pest or weed control at 500 g/ha came out at 90% in assay [1] (application rate 500 g/Ha); 30% in [2] (application rate 500 g/Ha); 60% in the assay with Eleusine indica (ELEIN) (application rate 500 g/Ha); 60% in assay [3] (application rate 500 g/Ha); 0% in the assay with Lolium perenne (LOLPE) (application rate 500 g/Ha); 100% in assay [4] (application rate 500 g/Ha). Also, the pest or weed control at 500 g/ha was found to be 50% with Setaria faberi (SETFA) (application rate 500 g/Ha), 50% in [5] (application rate 500 g/Ha) and 20% in assay [6] (application rate 500 g/Ha).

Turning to `OCCC[n+]1ccc2ccccc2n1` [Compound A121], the pest or weed control at 1000 g/ha in [1] (application rate 1000 g/Ha) came out at 60%; in assay [2] (application rate 1000 g/Ha), 10%; in the assay on Eleusine indica (ELEIN) (application rate 1000 g/Ha) it was 0%; in assay [3] (application rate 1000 g/Ha), 30%; in the assay on Lolium perenne (LOLPE) (application rate 1000 g/Ha), 10%; in [4] (application rate 1000 g/Ha), 30%. In addition, the pest or weed control at 1000 g/ha came to 30% in the assay on Setaria faberi (SETFA) (application rate 1000 g/Ha), 0% in assay [5] (application rate 1000 g/Ha) and 20% in assay [6] (application rate 1000 g/Ha).
